Experimental findings from patent US20240270762A1, “PENICILLIN-BINDING PROTEIN INHIBITORS” (priority 2021, published 2024) are described below.

Molecules are shown by their SMILES. In brackets after ≈: the same amount, converted by molar mass. Some results are limits rather than exact numbers.

One experiment deals with N. gonorrhoeae WHO L. The experiment can be described thus: Liquid broth MIC in Fastidious broth. Conditions: Neisseria gonorrhoeae, read-out: Minimum Inhibitory Concentration, WHO L.
In a further experiment the test system is N. gonorrhoeae MS11. The experiment can be described thus: Liquid broth MIC in Fastidious broth. Conditions: Neisseria gonorrhoeae, MS11, read-out: Minimum Inhibitory Concentration, MS11.
A further experiment concerns N. gonorrhoeae WHO M. The experiment in a line: Liquid broth MIC in Fastidious broth. Conditions: Neisseria gonorrhoeae, read-out: Minimum Inhibitory Concentration, WHO M.
For experiment [1], the target named is T1, PBP1a from Acinetobacter baumannii (ATCC 19606) (Acinetobacter baumannii, UniProt A0ABX6CK30).
T1 sequence (A0ABX6CK30 1-851): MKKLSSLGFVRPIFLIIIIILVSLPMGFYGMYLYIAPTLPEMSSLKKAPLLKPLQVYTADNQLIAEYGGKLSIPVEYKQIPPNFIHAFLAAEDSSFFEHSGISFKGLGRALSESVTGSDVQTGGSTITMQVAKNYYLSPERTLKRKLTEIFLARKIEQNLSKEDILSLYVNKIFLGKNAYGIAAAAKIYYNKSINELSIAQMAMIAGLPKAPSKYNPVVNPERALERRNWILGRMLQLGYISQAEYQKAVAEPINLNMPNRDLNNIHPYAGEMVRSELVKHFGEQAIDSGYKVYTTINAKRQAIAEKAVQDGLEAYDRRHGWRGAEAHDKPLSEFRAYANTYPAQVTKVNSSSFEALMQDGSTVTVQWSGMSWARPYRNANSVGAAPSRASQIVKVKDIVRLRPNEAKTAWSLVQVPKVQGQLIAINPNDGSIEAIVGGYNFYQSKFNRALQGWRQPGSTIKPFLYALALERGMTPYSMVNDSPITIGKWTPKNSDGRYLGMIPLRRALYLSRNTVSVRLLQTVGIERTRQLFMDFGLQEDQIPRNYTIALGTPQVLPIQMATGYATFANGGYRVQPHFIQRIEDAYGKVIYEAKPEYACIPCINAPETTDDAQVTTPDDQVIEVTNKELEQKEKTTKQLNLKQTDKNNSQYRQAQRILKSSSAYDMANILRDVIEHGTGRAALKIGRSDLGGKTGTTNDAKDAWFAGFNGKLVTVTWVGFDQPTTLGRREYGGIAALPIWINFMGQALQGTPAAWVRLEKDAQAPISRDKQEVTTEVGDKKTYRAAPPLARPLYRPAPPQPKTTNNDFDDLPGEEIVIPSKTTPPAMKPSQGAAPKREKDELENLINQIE
The experiment can be described thus: Bocillin-FL fluorescence polarization competition binding, A. baumannii PBP1a. As to conditions: fluorescence polarization competition binding assay using Bocillin-FL; read-out: A. baumannii PBP1a Potency. In short, it runs like this: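 Purified PBP was preincubated with inhibitor (E. coli PBP3 1.5 μM, 30 min; P. aeruginosa PBP3 0.75 μM, A. baumannii PBP3 0.2 μM and PBP1a 1 μM, 15 min), then Bocillin-FL (0.1 μM; 0.05 μM for PBP1a) added and FP read up to 60 min. EC50 = 50% loss of bound probe.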
In general terms: In fluorescence polarisation assays a small probe gives low polarisation when free and higher when bound to something large.

The next experiment has as its system N. gonorrhoeae CDC-0197. The experiment can be described thus: Liquid broth MIC in Fastidious broth. As to conditions: Neisseria gonorrhoeae, CDC0197, read-out: Minimum Inhibitory Concentration, CDC-0197.
A further experiment concerns N. gonorrhoeae WHO K. The experiment in a line: Liquid broth MIC in Fastidious broth. As to conditions: Neisseria gonorrhoeae, read-out: Minimum Inhibitory Concentration, WHO K.
A further experiment has as its system N. gonorrhoeae FA1090. The experiment in a line: Liquid broth MIC in Fastidious broth. As to conditions: Neisseria gonorrhoeae, FA1090, read-out: Minimum Inhibitory Concentration, FA 1090.
The next experiment concerns N. gonorrhoeae WHO Q. The experiment in a line: Liquid broth MIC in Fastidious broth. Conditions: Neisseria gonorrhoeae, read-out: Minimum Inhibitory Concentration, WHO Q.

Experimental for N. gonorrhoeae CDC-0197: ATCC 49226, FA1090, MS11, WHO G, WHO L, and WHO M produce wild type or wild-type like PBP2. WHO K, WHO X, WHO Z, WHO Q, and CDC-0197 produce mosaic PBP2. Liquid broth-based assays were used for antibacterial testing of PBP inhibitors in Neisseria gonorrhoeae. Briefly, cryo-preserved bacterial cultures of clinical strains were streaked for isolation on Chocolate Agar (72 g/L (2×) GC Agar Base (BD #228950) and 2% (2×) Hemoglobin was autoclaved at 121° C. for 20 minutes to sterilize. Once cooled to ˜50° C. the 2×GC Agar Base and 2× Hemoglobin solutions are combined and 1% IsoVitaleX Enrichment (BD #211876) was added to the solution). Strains were incubated at 36° C. and 5% CO2 to allow growth of colonies, 24 hours before inoculum preparation. 2-fold serial dilutions of test compounds were conducted in a 96 well plate with a final volume of 75 μL per well at 2-fold the final desired concentration in Fastidious broth (Remel #R07664). For preparation of assay inoculum, a direct suspension was prepared by aseptically swabbing 10-15 colonies from agar plates into culture tubes containing 2 mL of fresh sterile saline. After the dilution plates were set up, direct suspensions were then diluted in a cuvette containing sterile saline and the optical density was measured at 600 nm. Inocula were diluted such that 75 μL of this culture in Fastidious broth results in a starting bacterial concentration of 5×10^5 CFU/mL when added to the dilution plates. The plates were incubated for ˜24 hours at 36° C. and 5% CO2.
Experimental for N. gonorrhoeae WHO Q: Liquid broth-based assays were used for antibacterial testing of PBP inhibitors in Neisseria gonorrhoeae. Briefly, cryo-preserved bacterial cultures of clinical strains were streaked for isolation on Chocolate Agar (72 g/L (2×) GC Agar Base (BD #228950) and 2% (2×) Hemoglobin was autoclaved at 121° C. for 20 minutes to sterilize. Once cooled to ˜50° C. the 2×GC Agar Base and 2× Hemoglobin solutions are combined and 1% IsoVitaleX Enrichment (BD #211876) was added to the solution). Strains were incubated at 36° C. and 5% CO2 to allow growth of colonies, 24 hours before inoculum preparation. 2-fold serial dilutions of test compounds were conducted in a 96 well plate with a final volume of 75 μL per well at 2-fold the final desired concentration in Fastidious broth (Remel #R07664). For preparation of assay inoculum, a direct suspension was prepared by aseptically swabbing 10-15 colonies from agar plates into culture tubes containing 2 mL of fresh sterile saline. After the dilution plates were set up, direct suspensions were then diluted in a cuvette containing sterile saline and the optical density was measured at 600 nm. Inocula were diluted such that 75 μL of this culture in Fastidious broth results in a starting bacterial concentration of 5×10^5 CFU/mL when added to the dilution plates. The plates were incubated for ˜24 hours at 36° C. and 5% CO2.

On to `O=C(NCCCS(=O)(=O)N1CCN(C(=O)NC(C(=O)N[C@H]2Cc3ccc(F)c(C(=O)O)c3OB2O)c2cc(F)c(O)c(O)c2Cl)C1=O)Nc1cccc(O)c1` (stereo partly drawn) [Example 277, (3R)-3-(2-(2-chloro-5-fluoro-3,4-dihydroxyphenyl)-2-(3-((3-(3-(3-hydroxyphenyl)ureido)propyl)sulfonyl)-2-oxoimidazolidine-1-carboxamido)acetamido)-7-fluoro-2-hydroxy-3,4-dihydro-2H-benzo[e][1,2]oxaborinine-8-carboxylic acid], for which the MIC was above 64 µg/mL in the experiment with N. gonorrhoeae WHO L; 16 to 32 µg/mL (≈ 19.7 to 39.5 µM) in the experiment with N. gonorrhoeae MS11; 16 to 32 µg/mL (≈ 19.7 to 39.5 µM) in the experiment with N. gonorrhoeae WHO M; 16 to 32 µg/mL (≈ 19.7 to 39.5 µM) with N. gonorrhoeae CDC-0197; above 64 µg/mL with N. gonorrhoeae WHO K; 1 to 2 µg/mL (≈ 1.23 to 2.47 µM) with N. gonorrhoeae FA1090. Besides, the MIC in the experiment with N. gonorrhoeae WHO Q lay in the range of 16 to 32 µg/mL (≈ 19.7 to 39.5 µM). Further, the IC50 in experiment [1] is above 250 µM.
As for `O=C(NCCCS(=O)(=O)N1CCN(C(=O)NC(C(=O)N[C@H]2Cc3ccc(F)c(C(=O)O)c3OB2O)c2cc(F)c(O)c(O)c2Cl)C1=O)Nc1cccnc1` (stereo partly drawn) [Example 278, (3R)-3-(2-(2-chloro-5-fluoro-3,4-dihydroxyphenyl)-2-(2-oxo-3-((3-(3-(pyridin-3-yl)ureido)propyl)sulfonyl)imidazolidine-1-carboxamido)acetamido)-7-fluoro-2-hydroxy-3,4-dihydro-2H-benzo[e][1,2]oxaborinine-8-carboxylic acid], the MIC in the experiment on N. gonorrhoeae WHO L is above 64 µg/mL; in the experiment on N. gonorrhoeae MS11, 16 to 32 µg/mL (≈ 20.1 to 40.2 µM); with N. gonorrhoeae WHO M, 16 to 32 µg/mL (≈ 20.1 to 40.2 µM); in the experiment on N. gonorrhoeae CDC-0197, 16 to 32 µg/mL (≈ 20.1 to 40.2 µM); in the experiment on N. gonorrhoeae WHO K, above 64 µg/mL; in the experiment on N. gonorrhoeae FA1090, 4 to 8 µg/mL (≈ 5.03 to 10.1 µM). The MIC in the experiment with N. gonorrhoeae WHO Q was 16 to 32 µg/mL (≈ 20.1 to 40.2 µM). In experiment [1], the IC50 was above 250 µM.
With `O=C(NCCN1CCN(C(=O)N[C@@H](C(=O)N[C@H]2Cc3ccc(F)c(C(=O)O)c3OB2O)c2cc(F)c(O)c(O)c2Cl)C1=O)Nc1ccc(O)cc1` [Example 279, (R)-3-((R)-2-(2-chloro-5-fluoro-3,4-dihydroxyphenyl)-2-(3-(2-(3-(4-hydroxyphenyl)ureido)ethyl)-2-oxoimidazolidine-1-carboxamido)acetamido)-7-fluoro-2-hydroxy-3,4-dihydro-2H-benzo[e][1,2]oxaborinine-8-carboxylic acid], the MIC with N. gonorrhoeae WHO L was 16 to 32 µg/mL (≈ 21.8 to 43.7 µM); with N. gonorrhoeae MS11, 4 to 8 µg/mL (≈ 5.46 to 10.9 µM); in the experiment with N. gonorrhoeae WHO M, 1 to 2 µg/mL (≈ 1.36 to 2.73 µM); in the experiment on N. gonorrhoeae CDC-0197, 4 to 8 µg/mL (≈ 5.46 to 10.9 µM); in the experiment on N. gonorrhoeae WHO K, 16 to 32 µg/mL (≈ 21.8 to 43.7 µM); with N. gonorrhoeae FA1090, below 1 µg/mL. Further, the MIC in the experiment on N. gonorrhoeae WHO Q lay within 16 to 32 µg/mL (≈ 21.8 to 43.7 µM). Besides, in experiment [1], the IC50 was above 250 µM.
As to `O=C(NCCCN1CCN(C(=O)NC(C(=O)N[C@H]2Cc3ccc(F)c(C(=O)O)c3OB2O)c2cc(F)c(O)c(O)c2Cl)C1=O)c1ccc(O)cc1` (stereo partly drawn) [Example 280, (3R)-3-(2-(2-chloro-5-fluoro-3,4-dihydroxyphenyl)-2-(3-(3-(4-hydroxybenzamido)propyl)-2-oxoimidazolidine-1-carboxamido)acetamido)-7-fluoro-2-hydroxy-3,4-dihydro-2H-benzo[e][1,2]oxaborinine-8-carboxylic acid], the MIC was above 64 µg/mL in the experiment on N. gonorrhoeae WHO L; 16 to 32 µg/mL (≈ 21.9 to 43.7 µM) in the experiment with N. gonorrhoeae MS11; 16 to 32 µg/mL (≈ 21.9 to 43.7 µM) in the experiment with N. gonorrhoeae WHO M; above 64 µg/mL with N. gonorrhoeae CDC-0197; above 64 µg/mL in the experiment with N. gonorrhoeae WHO K; 4 to 8 µg/mL (≈ 5.47 to 10.9 µM) with N. gonorrhoeae FA1090. The MIC with N. gonorrhoeae WHO Q is above 64 µg/mL. Further, the IC50 in experiment [1] is above 250 µM.
As to `O=C(NCCCN1CCN(C(=O)NC(C(=O)N[C@H]2Cc3ccc(F)c(C(=O)O)c3OB2O)c2cc(F)c(O)c(O)c2Cl)C1=O)c1cccnc1` (stereo partly drawn) [Example 281, (3R)-3-(2-(2-chloro-5-fluoro-3,4-dihydroxyphenyl)-2-(3-(3-(nicotinamido)propyl)-2-oxoimidazolidine-1-carboxamido)acetamido)-7-fluoro-2-hydroxy-3,4-dihydro-2H-benzo[e][1,2]oxaborinine-8-carboxylic acid], the MIC in the experiment with N. gonorrhoeae WHO L was above 64 µg/mL; in the experiment with N. gonorrhoeae MS11 it was above 64 µg/mL; with N. gonorrhoeae WHO M, 16 to 32 µg/mL (≈ 22.3 to 44.6 µM); with N. gonorrhoeae CDC-0197, above 64 µg/mL; in the experiment on N. gonorrhoeae WHO K it was above 64 µg/mL; with N. gonorrhoeae FA1090 it was 4 to 8 µg/mL (≈ 5.58 to 11.2 µM). Besides, the MIC in the experiment on N. gonorrhoeae WHO Q is above 64 µg/mL. Moreover, the IC50 in experiment [1] is above 250 µM.
In the case of `O=C(NCCCN1CCN(C(=O)N[C@H](C(=O)N[C@H]2Cc3ccc(F)c(C(=O)O)c3OB2O)c2cc(F)c(O)c(O)c2Cl)C1=O)Nc1ccc(O)cc1` [Example 283, (R)-3-((S)-2-(2-chloro-5-fluoro-3,4-dihydroxyphenyl)-2-(3-(3-(3-(4-hydroxyphenyl)ureido)propyl)-2-oxoimidazolidine-1-carboxamido)acetamido)-7-fluoro-2-hydroxy-3,4-dihydro-2H-benzo[e][1,2]oxaborinine-8-carboxylic acid], the MIC in the experiment on N. gonorrhoeae WHO L, with N. gonorrhoeae MS11, in the experiment on N. gonorrhoeae WHO M, in the experiment with N. gonorrhoeae CDC-0197, with N. gonorrhoeae WHO K and in the experiment with N. gonorrhoeae FA1090 was above 64 µg/mL in each case. Moreover, in the experiment with N. gonorrhoeae WHO Q, the MIC was above 64 µg/mL. For the same compound, in experiment [1], the IC50 is above 250 µM.
In the case of `O=C(NCCCN1CCN(C(=O)N[C@@H](C(=O)N[C@H]2Cc3ccc(F)c(C(=O)O)c3OB2O)c2cc(F)c(O)c(O)c2Cl)C1=O)Nc1ccc(O)cc1` [Example 284, (R)-3-((R)-2-(2-chloro-5-fluoro-3,4-dihydroxyphenyl)-2-(3-(3-(3-(4-hydroxyphenyl)ureido)propyl)-2-oxoimidazolidine-1-carboxamido)acetamido)-7-fluoro-2-hydroxy-3,4-dihydro-2H-benzo[e][1,2]oxaborinine-8-carboxylic acid], the MIC with N. gonorrhoeae WHO L fell in the range of 16 to 32 µg/mL (≈ 21.4 to 42.8 µM); in the experiment with N. gonorrhoeae MS11 it was 4 to 8 µg/mL (≈ 5.36 to 10.7 µM); with N. gonorrhoeae WHO M, 4 to 8 µg/mL (≈ 5.36 to 10.7 µM); in the experiment with N. gonorrhoeae CDC-0197, 16 to 32 µg/mL (≈ 21.4 to 42.8 µM); with N. gonorrhoeae WHO K, 16 to 32 µg/mL (≈ 21.4 to 42.8 µM); in the experiment on N. gonorrhoeae FA1090, 1 to 2 µg/mL (≈ 1.34 to 2.68 µM). The MIC in the experiment on N. gonorrhoeae WHO Q lay in the range of 4 to 8 µg/mL (≈ 5.36 to 10.7 µM). The IC50 in experiment [1] is above 250 µM.
On to `O=C(O)c1c(F)ccc2c1OB(O)[C@@H](NC(=O)C(NC(=O)N1CCN(CC3CCN(C(=O)c4cccc(O)c4)CC3)C(=O)C1=O)c1cc(F)c(O)c(O)c1Cl)C2` (stereo partly drawn) [Example 475, (3R)-3-(2-(2-chloro-5-fluoro-3,4-dihydroxyphenyl)-2-(4-((1-(3-hydroxybenzoyl)piperidin-4-yl)methyl)-2,3-dioxopiperazine-1-carboxamido)acetamido)-7-fluoro-2-hydroxy-3,4-dihydro-2H-benzo[e][1,2]oxaborinine-8-carboxylic acid], for which the IC50 in experiment [1] is above 250 µM.
In the case of `O=C(O)c1c(F)ccc2c1OB(O)[C@@H](NC(=O)C(NC(=O)N1CCN(CC3CCN(C(=O)Nc4cccc(O)c4)CC3)C(=O)C1=O)c1cc(F)c(O)c(O)c1Cl)C2` (stereo partly drawn) [Example 477, (3R)-3-(2-(2-chloro-5-fluoro-3,4-dihydroxyphenyl)-2-(4-((1-((3-hydroxyphenyl)carbamoyl)piperidin-4-yl)methyl)-2,3-dioxopiperazine-1-carboxamido)acetamido)-7-fluoro-2-hydroxy-3,4-dihydro-2H-benzo[e][1,2]oxaborinine-8-carboxylic acid], in experiment [1], the IC50 is above 250 µM.
Turning to `O=C(O)c1c(F)ccc2c1OB(O)[C@@H](NC(=O)C(NC(=O)N1CCN(C3CCN(C(=O)Nc4cccc(O)c4F)CC3)C(=O)C1=O)c1cc(F)c(O)c(O)c1Cl)C2` (stereo partly drawn) [Example 478, (3R)-3-(2-(2-chloro-5-fluoro-3,4-dihydroxyphenyl)-2-(4-(1-((2-fluoro-3-hydroxyphenyl)carbamoyl)piperidin-4-yl)-2,3-dioxopiperazine-1-carboxamido)acetamido)-7-fluoro-2-hydroxy-3,4-dihydro-2H-benzo[e][1,2]oxaborinine-8-carboxylic acid], the IC50 in experiment [1] was above 250 µM.
